Data as given in BindingDB's records for doi:10.7270/Q2DZ06SS (Burnham Center For Chemical Genomics, 2011).
pIC50: −log10 of the molar value.

Molecular target: T1, BRCA1-associated RING domain protein 1 (Homo sapiens, UniProt Q99728)
T1 sequence (Q99728 whole entry): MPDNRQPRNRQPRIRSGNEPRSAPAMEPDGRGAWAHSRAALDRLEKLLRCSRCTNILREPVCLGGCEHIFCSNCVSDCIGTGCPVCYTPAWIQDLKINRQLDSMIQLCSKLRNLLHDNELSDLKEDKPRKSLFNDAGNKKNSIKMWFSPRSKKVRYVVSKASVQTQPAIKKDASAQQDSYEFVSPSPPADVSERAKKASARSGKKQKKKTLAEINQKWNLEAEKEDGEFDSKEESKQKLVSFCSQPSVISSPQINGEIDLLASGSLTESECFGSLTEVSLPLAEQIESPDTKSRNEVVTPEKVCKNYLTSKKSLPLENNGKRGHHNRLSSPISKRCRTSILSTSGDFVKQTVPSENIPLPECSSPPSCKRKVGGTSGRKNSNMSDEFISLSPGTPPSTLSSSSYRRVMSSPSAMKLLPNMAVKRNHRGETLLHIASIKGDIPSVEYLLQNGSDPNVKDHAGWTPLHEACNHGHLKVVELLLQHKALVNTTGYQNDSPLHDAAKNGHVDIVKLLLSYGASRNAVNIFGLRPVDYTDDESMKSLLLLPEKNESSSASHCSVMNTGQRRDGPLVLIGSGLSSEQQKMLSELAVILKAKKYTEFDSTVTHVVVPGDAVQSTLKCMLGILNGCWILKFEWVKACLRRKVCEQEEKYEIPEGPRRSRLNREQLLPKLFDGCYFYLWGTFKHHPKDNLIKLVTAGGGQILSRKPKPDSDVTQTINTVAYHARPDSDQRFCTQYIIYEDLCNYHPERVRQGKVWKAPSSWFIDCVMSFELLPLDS
Test: inhibition of Brca1/Bard1 split-luciferase complementation, dose response, counter-screen for Mdm2/MdmX interaction inhibitor project, cell-based, luminescence (AID 504669)

pIC50: 5.27
SMILES: Cc1cc(N=NC(C)c2ccccc2O)nc(-c2ccccc2O)n1 (stereo unspecified)
